Data: the kinase profiling compilation of Christmann-Franck et al. (2016)

Assays:
Experiment in all cases: radiometric filter-binding kinase assay, Kinase HotSpot
Conditions in all cases: compound 0.5 µM; ATP 10 µM
ADRBK2 (human) = ADRBK2 (human) (UniProt P35626)
BTK (human) = BTK (human) (UniProt Q06187)
NEK4 (human) = NEK4 (human) (UniProt P51957)
CSK (human) = CSK (human) (UniProt P41240)
PRKCD (human) = PRKCD (human) (UniProt Q05655)
PRKCB1 (human) = PRKCB1 (human) (UniProt P05771)
TAOK3 (human) = TAOK3 (human) (UniProt Q9H2K8)
MATK (human) = MATK (human) (UniProt P42679)
DSTYK (human) = DSTYK (human) (UniProt Q6XUX3)
MAP3K2 (human) = MAP3K2 (human) (UniProt Q9Y2U5)
ADRBK1 (human) = ADRBK1 (human) (UniProt P25098)
FLT1 (human) = FLT1 (human) (UniProt P17948)
CDK5 CDK5R1 p25 (human) = CDK5 CDK5R1 p25 (human) (UniProt Q00535+Q15078)
MYLK (human) = MYLK (human) (UniProt Q15746)
PRKCI (human) = PRKCI (human) (UniProt P41743)
EPHA1 (human) = EPHA1 (human) (UniProt P21709)
PLK3 (human) = PLK3 (human) (UniProt Q9H4B4)
ABL2 (human) = ABL2 (human) (UniProt P42684)
HIPK2 (human) = HIPK2 (human) (UniProt Q9H2X6)
PAK6 (human) = PAK6 (human) (UniProt Q9NQU5)
CAMK2A (human) = CAMK2A (human) (UniProt Q9UQM7)
PRKCE (human) = PRKCE (human) (UniProt Q02156)
YES1 (human) = YES1 (human) (UniProt P07947)
MARK1 (human) = MARK1 (human) (UniProt Q9P0L2)
IRAK4 (human) = IRAK4 (human) (UniProt Q9NWZ3)
CDC42BPA (human) = CDC42BPA (human) (UniProt Q5VT25)
PRKCG (human) = PRKCG (human) (UniProt P05129)
ZAP70 (human) = ZAP70 (human) (UniProt P43403)
FGR (human) = FGR (human) (UniProt P09769)
SGK2 (human) = SGK2 (human) (UniProt Q9HBY8)
CDK9 CCNK (human) = CDK9 CCNK (human) (UniProt O75909+P50750)
PAK4 (human) = PAK4 (human) (UniProt O96013)
MARK4 (human) = MARK4 (human) (UniProt Q96L34)
BMX (human) = BMX (human) (UniProt P51813)
CDC42BPB (human) = CDC42BPB (human) (UniProt Q9Y5S2)
ITK (human) = ITK (human) (UniProt Q08881)
SGK3 (human) = SGK3 (human) (UniProt Q96BR1)
GRK7 (human) = GRK7 (human) (UniProt Q8WTQ7)
STK10 (human) = STK10 (human) (UniProt O94804)
CAMKK1 (human) = CAMKK1 (human) (UniProt Q8N5S9)
MLTK (human) = MLTK (human) (UniProt Q9NYL2)
LRRK2 (human) = LRRK2 (human) (UniProt Q5S007)

Sequence of BMX (human) (P51813 whole entry, looked up): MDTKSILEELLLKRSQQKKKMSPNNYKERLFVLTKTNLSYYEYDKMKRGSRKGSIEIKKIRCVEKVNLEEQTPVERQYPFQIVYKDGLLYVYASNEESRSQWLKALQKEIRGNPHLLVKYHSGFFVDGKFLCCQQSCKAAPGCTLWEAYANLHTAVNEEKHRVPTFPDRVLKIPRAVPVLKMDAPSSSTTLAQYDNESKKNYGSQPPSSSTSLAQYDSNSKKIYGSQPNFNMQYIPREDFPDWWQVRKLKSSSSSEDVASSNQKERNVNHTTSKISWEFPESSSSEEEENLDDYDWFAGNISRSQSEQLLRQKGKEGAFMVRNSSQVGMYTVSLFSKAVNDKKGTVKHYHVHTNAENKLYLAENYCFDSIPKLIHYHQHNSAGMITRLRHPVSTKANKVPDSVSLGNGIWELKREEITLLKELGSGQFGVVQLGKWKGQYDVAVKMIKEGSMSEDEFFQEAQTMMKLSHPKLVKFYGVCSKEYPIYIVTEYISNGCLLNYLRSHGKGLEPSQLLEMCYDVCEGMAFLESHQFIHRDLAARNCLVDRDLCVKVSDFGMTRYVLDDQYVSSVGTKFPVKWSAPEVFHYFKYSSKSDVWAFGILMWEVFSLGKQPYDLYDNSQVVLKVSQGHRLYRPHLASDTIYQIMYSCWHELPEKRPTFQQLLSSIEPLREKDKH
Sequence of PLK3 (human) (Q9H4B4 whole entry, looked up): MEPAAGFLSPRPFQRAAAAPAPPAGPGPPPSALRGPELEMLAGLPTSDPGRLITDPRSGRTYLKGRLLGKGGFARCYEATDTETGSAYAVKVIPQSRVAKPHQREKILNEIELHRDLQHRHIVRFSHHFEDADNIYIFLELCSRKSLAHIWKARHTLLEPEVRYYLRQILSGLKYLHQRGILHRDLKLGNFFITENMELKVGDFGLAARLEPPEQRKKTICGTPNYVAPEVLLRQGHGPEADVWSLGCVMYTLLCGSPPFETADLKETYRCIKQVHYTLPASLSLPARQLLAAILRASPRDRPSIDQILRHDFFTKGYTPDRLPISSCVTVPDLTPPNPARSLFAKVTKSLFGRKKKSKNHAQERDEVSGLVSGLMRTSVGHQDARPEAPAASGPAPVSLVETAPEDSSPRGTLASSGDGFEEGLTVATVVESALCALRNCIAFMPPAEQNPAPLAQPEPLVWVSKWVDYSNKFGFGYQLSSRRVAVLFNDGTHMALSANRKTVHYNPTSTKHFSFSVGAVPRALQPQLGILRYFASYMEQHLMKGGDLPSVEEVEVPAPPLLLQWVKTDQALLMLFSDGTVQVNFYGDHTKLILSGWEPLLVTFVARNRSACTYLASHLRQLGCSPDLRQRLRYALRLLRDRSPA
Sequence of ADRBK2 (human) (P35626 whole entry, looked up): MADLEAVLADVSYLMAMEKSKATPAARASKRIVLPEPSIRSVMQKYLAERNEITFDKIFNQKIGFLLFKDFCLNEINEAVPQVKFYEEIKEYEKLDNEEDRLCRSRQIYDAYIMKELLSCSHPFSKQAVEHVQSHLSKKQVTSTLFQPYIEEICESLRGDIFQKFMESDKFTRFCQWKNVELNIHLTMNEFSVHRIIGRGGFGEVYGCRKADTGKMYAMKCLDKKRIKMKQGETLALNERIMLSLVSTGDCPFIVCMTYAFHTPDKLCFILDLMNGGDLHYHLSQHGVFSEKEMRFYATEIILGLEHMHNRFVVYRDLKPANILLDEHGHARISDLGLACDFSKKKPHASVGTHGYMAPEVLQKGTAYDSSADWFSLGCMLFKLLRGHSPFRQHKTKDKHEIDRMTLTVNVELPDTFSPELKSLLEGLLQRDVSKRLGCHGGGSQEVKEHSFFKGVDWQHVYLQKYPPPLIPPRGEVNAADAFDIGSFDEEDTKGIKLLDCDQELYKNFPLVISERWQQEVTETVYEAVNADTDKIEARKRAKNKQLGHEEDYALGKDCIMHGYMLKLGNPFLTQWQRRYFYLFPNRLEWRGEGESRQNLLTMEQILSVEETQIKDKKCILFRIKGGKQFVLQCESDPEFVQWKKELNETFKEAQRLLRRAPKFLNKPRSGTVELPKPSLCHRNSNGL
Sequence of PRKCI (human) (P41743 whole entry, looked up): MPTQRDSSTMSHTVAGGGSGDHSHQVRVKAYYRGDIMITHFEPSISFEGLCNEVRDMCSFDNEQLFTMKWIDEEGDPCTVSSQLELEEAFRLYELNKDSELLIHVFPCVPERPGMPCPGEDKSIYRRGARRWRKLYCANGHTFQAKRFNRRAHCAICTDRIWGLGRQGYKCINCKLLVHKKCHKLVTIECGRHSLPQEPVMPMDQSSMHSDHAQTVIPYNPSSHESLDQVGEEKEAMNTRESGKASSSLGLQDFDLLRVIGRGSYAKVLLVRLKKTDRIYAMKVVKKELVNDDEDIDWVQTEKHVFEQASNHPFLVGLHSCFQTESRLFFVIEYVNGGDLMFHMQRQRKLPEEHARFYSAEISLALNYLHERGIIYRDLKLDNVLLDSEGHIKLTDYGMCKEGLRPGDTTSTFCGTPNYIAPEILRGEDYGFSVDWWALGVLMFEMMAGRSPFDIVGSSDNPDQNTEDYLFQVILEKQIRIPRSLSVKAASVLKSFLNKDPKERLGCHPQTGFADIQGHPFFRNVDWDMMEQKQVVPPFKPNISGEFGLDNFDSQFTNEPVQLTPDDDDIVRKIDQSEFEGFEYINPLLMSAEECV
Sequence of CAMKK1 (human) (Q8N5S9 whole entry, looked up): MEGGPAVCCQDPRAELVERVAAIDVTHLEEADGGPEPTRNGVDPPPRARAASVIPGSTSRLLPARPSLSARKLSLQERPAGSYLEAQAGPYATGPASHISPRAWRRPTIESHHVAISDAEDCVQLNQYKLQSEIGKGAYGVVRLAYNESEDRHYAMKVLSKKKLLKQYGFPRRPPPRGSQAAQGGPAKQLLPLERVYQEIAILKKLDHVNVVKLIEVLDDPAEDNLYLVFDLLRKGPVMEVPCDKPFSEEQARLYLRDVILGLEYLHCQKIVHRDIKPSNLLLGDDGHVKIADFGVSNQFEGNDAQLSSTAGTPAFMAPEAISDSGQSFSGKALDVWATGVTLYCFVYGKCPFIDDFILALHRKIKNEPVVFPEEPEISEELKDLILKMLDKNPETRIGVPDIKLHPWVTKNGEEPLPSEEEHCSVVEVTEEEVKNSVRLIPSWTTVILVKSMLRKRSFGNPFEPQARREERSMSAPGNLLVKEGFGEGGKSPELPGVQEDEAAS
Sequence of FLT1 (human) (P17948 whole entry, looked up): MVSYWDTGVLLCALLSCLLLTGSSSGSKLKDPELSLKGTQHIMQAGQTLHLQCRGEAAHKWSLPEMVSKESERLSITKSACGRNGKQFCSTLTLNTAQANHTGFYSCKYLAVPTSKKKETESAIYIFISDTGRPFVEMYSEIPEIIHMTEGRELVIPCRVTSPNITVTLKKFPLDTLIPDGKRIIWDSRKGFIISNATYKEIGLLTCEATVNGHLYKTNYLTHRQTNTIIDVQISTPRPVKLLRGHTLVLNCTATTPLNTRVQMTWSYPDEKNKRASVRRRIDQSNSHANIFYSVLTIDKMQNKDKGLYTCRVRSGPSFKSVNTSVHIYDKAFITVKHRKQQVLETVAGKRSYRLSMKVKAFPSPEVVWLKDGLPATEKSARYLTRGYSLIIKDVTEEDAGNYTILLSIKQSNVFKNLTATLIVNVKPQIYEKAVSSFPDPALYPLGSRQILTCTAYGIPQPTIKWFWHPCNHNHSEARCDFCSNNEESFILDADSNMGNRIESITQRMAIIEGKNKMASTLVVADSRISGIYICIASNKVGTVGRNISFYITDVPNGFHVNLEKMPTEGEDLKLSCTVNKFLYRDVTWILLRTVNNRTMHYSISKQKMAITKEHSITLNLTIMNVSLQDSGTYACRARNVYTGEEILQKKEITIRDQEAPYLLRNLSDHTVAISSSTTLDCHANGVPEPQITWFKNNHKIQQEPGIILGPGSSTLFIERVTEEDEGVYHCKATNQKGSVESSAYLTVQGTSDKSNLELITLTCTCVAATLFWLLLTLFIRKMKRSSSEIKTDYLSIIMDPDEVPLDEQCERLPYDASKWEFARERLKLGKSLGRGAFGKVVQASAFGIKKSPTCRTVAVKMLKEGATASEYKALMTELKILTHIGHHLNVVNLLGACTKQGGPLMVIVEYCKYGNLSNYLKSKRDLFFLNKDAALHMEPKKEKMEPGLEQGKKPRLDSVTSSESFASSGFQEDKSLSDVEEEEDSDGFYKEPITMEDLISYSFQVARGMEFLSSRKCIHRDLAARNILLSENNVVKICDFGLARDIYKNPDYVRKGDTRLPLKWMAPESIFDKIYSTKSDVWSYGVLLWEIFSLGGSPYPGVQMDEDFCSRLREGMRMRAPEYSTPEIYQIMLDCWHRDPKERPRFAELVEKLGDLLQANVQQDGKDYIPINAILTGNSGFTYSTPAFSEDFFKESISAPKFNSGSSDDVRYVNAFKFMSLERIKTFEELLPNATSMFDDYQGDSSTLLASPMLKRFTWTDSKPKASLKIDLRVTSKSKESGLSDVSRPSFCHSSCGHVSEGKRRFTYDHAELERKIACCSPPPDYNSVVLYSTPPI
Sequence of PAK4 (human) (O96013 whole entry, looked up): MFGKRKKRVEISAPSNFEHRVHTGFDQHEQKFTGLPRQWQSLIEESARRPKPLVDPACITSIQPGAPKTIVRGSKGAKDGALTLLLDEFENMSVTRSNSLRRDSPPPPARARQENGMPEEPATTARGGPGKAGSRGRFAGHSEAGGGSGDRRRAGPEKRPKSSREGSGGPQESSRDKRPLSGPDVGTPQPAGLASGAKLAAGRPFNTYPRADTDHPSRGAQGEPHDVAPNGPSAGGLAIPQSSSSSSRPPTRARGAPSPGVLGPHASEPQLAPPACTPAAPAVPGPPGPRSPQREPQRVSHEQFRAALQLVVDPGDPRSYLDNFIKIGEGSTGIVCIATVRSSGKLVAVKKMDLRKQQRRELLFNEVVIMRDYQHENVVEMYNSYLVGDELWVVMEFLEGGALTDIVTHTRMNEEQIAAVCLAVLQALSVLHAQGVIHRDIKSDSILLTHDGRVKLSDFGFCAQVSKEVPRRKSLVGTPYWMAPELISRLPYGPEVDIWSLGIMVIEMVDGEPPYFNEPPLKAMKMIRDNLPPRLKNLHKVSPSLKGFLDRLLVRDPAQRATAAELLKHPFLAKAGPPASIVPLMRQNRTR

COc1cc2ncnc(Nc3ccc(OCc4ccccc4)cc3)c2cc1OC
residual activity (ADRBK2 (human)): 99.6% | residual activity (BTK (human)): 90.6% | residual activity (NEK4 (human)): 86.9% | residual activity (CSK (human)): 72.5% | residual activity (PRKCD (human)): 101% | residual activity (PRKCB1 (human)): 97.4% | residual activity (TAOK3 (human)): 91.7% | residual activity (MATK (human)): 97.5% | residual activity (DSTYK (human)): 95.9% | residual activity (MAP3K2 (human)): 113% | residual activity (ADRBK1 (human)): 101% | residual activity (FLT1 (human)): 96% | residual activity (CDK5 CDK5R1 p25 (human)): 97.8% | residual activity (MYLK (human)): 95% | residual activity (PRKCI (human)): 101% | residual activity (EPHA1 (human)): 102% | residual activity (PLK3 (human)): 98% | residual activity (ABL2 (human)): 101% | residual activity (HIPK2 (human)): 111% | residual activity (PAK6 (human)): 95.4% | residual activity (CAMK2A (human)): 107% | residual activity (PRKCE (human)): 99.4% | residual activity (YES1 (human)): 36% | residual activity (MARK1 (human)): 103% | residual activity (IRAK4 (human)): 119% | residual activity (CDC42BPA (human)): 101% | residual activity (PRKCG (human)): 98.5% | residual activity (ZAP70 (human)): 87.6% | residual activity (FGR (human)): 72.2% | residual activity (SGK2 (human)): 100% | residual activity (CDK9 CCNK (human)): 103% | residual activity (PAK4 (human)): 103% | residual activity (MARK4 (human)): 99.5% | residual activity (BMX (human)): 89.7% | residual activity (CDC42BPB (human)): 98.8% | residual activity (ITK (human)): 96.2% | residual activity (SGK3 (human)): 105% | residual activity (GRK7 (human)): 101% | residual activity (STK10 (human)): 68.2% | residual activity (CAMKK1 (human)): 126% | residual activity (MLTK (human)): 96.2% | residual activity (LRRK2 (human)): 92.2%

COc1cc2ncnc(Nc3ccc(Oc4ccccc4)cc3)c2cc1OC
residual activity (ADRBK2 (human)): 91.8% | residual activity (BTK (human)): 38.8% | residual activity (NEK4 (human)): 96.8% | residual activity (CSK (human)): 18.8% | residual activity (PRKCD (human)): 96.8% | residual activity (PRKCB1 (human)): 109% | residual activity (TAOK3 (human)): 102% | residual activity (MATK (human)): 94.3% | residual activity (DSTYK (human)): 91.6% | residual activity (MAP3K2 (human)): 102% | residual activity (ADRBK1 (human)): 101% | residual activity (FLT1 (human)): 79.8% | residual activity (CDK5 CDK5R1 p25 (human)): 88.8% | residual activity (MYLK (human)): 105% | residual activity (PRKCI (human)): 108% | residual activity (EPHA1 (human)): 95.6% | residual activity (PLK3 (human)): 97.1% | residual activity (ABL2 (human)): 96.4% | residual activity (HIPK2 (human)): 94.8% | residual activity (PAK6 (human)): 109% | residual activity (CAMK2A (human)): 102% | residual activity (PRKCE (human)): 94.6% | residual activity (YES1 (human)): 7.96% | residual activity (MARK1 (human)): 93.3% | residual activity (IRAK4 (human)): 112% | residual activity (CDC42BPA (human)): 95.4% | residual activity (PRKCG (human)): 84.6% | residual activity (ZAP70 (human)): 97% | residual activity (FGR (human)): 8.91% | residual activity (SGK2 (human)): 113% | residual activity (CDK9 CCNK (human)): 96.7% | residual activity (PAK4 (human)): 98.3% | residual activity (MARK4 (human)): 105% | residual activity (BMX (human)): 76.1% | residual activity (CDC42BPB (human)): 106% | residual activity (ITK (human)): 93.6% | residual activity (SGK3 (human)): 101% | residual activity (GRK7 (human)): 103% | residual activity (STK10 (human)): 74% | residual activity (CAMKK1 (human)): 93.1% | residual activity (MLTK (human)): 95.2% | residual activity (LRRK2 (human)): 65.3%
